Drawing on PMC5063977 (The Journal of Biological Chemistry, 2016), this text covers Emax for 2 compounds.

In one test the target is T1, RAMP3-CLR (AM2 receptor) (Homo sapiens, UniProt O60896+Q16602).
T1 construct: FLAG; expressed in transfected cells; host or cells: HEK-293 or HEK-293S cells, transient transfection, 1:1 RAMP:CLR
In words: (Ca^2+)i mobilization, HEK-293S cells, RAMP3 + CLR. It is filed as cell-based. Conditions: HEK293S, percentage of maximal (Ca^2+)i release with 10 μM ionomycin, mean ± S.E., n = 5. Here is the method:
HEK-293 cells, provided by Dr. Jügen Müller (University of Aston), were cultured in DMEM supplemented with 10% heat-inactivated FBS and kept at 37 °C in a humidified 95% air, 5% CO2 incubator. HEK-293S cells (a gift from AstraZeneca) were cultured in DMEM supplemented with 8% heat-inactivated FBS and kept at 37 °C in a humidified 95% air, 5% CO2 incubator. HEK-293 cells were transfected with FuGENE 6 (Roche Applied Science) in accordance with the manufacturer's instructions using a 1:3 (w:v) DNA:FuGENE ratio and a 1:1 ratio of RAMP to CLR. HEK-293S cells were seeded into 96-well poly-D-lysine-coated plates at a density of 15,000 cells/well (determined using a Countess^TM cell counter, Invitrogen) 1 day prior to transfection. HEK-293S cells were transiently transfected as described previously ([38]) using a 1:1 ratio of RAMP to CLR. The transfected cell lines were grown for 24–48 h prior to assaying.
Transfected HEK-293 cells were grown to confluence in black, clear bottomed, 96-well plates. […] Ligands were added robotically using a Mithras LB 940 multimode microplate reader in the range of 10 pM to 1 μM, and fluorescence was determined immediately post-injection with an excitation wavelength set to 485 nm and an emission wavelength set to 535 nm. […] Peak magnitude was calculated using five-point smoothing followed by correction against background fluorescence. […]

Test [1] has as its target T2, RAMP1-CLR (CGRP receptor) (Homo sapiens, UniProt O60894+Q16602).
T2 construct: FLAG; expressed in transfected cells; host or cells: HEK-293 or HEK-293S cells, transient transfection, 1:1 RAMP:CLR
In words: cAMP accumulation, HEK-293 cells, RAMP1 + CLR. Particulars: mean ± S.E. It counts as cell-based. How it is done:
HEK-293 cells were transfected with FuGENE 6 (Roche Applied Science) in accordance with the manufacturer's instructions using a 1:3 (w:v) DNA:FuGENE ratio and a 1:1 ratio of RAMP to CLR. […] The transfected cell lines were grown for 24–48 h prior to assaying.
The transfected HEK-293 cells were washed in PBS, resuspended in stimulation buffer (PBS containing 0.1% BSA and 0.5 mM IBMX), and seeded at 2000 cells/well in 384-well white Optiplates. Ligands were added in the range of 1 pM to 1 mM, and cAMP accumulation was measured after 30 min of stimulation using a LANCE® cAMP detection kit (PerkinElmer Life Sciences). […] Plates were read using a Mithras LB 940 multimode microplate reader (Berthold Technologies). […] Values were converted to concentration using a cAMP standard curve performed in parallel.
Data analysis for cAMP assays was performed in GraphPad Prism 6.0f (San Diego, CA). Data were fitted to obtain concentration-response curves using either the three-parameter logistic equation (for pEC50 values) or the operational model for partial agonism ([34]) to obtain values of efficacy (log τ) and the equilibrium dissociation constant (log Ka). These values were then used to quantify signaling bias as change in log (τ/Ka) relative to the natural cognate ligand for the respective receptor ([41]). […] Statistical differences were analyzed using one-way ANOVA or Student's t test as appropriate with post hoc Bonferroni's or Dunnett's multiple comparisons, and p < 0.05 was considered significant. […] For RT-PCR, normalization to the internal standard GAPDH was performed to reduce variance and enable a comparison between different cell lines. To quantitate the ligand-dependent response in the yeast system, a strain lacking GPA1 (MMY11), grown in rich medium, was used as a standard ([72]). As GPA1 is not present in this strain, the Gβγ subunits are unregulated and free to signal, allowing us to determine the maximal response of our system. […] For the mammalian cell-based assays, data analysis was carried out as for the yeast curves. […]

T2 sequence (Q16602 23-461): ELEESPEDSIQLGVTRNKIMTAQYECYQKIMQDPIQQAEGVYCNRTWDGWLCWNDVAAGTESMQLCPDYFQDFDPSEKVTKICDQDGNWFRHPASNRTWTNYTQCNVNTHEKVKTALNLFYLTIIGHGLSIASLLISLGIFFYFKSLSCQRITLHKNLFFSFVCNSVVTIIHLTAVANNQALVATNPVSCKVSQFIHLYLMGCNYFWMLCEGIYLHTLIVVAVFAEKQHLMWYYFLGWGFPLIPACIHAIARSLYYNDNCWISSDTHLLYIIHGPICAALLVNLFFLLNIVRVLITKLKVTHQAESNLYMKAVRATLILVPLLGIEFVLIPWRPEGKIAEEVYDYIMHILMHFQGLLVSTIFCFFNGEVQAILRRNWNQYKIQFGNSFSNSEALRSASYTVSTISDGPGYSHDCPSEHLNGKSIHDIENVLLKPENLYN
T2 sequence (O60894 27-148): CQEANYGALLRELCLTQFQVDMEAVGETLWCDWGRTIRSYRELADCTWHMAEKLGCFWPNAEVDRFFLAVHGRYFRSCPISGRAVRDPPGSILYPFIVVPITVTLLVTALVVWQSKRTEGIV
T1 sequence (Q16602 23-461): as the sequence (Q16602 23-461) above
T1 sequence (O60896 24-148): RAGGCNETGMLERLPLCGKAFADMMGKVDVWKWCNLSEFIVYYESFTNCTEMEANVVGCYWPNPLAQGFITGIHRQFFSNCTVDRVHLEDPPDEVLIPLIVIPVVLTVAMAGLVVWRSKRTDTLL

Regarding `CSCC[C@H](NC(=O)[C@H](CC(C)C)NC(=O)[C@H](CCC(N)=O)NC(=O)[C@H](Cc1c[nH]c2ccccc12)NC(=O)[C@H](CC(C)C)NC(=O)[C@H](CCCNC(=N)N)NC(=O)[C@H](Cc1c[nH]cn1)NC(=O)[C@H](CO)NC(=O)[C@H](CC(C)C)NC(=O)[C@H](CC(N)=O)NC(=O)[C@H](CCC(N)=O)NC(=O)[C@@H](NC(=O)[C@H](CCC(N)=O)NC(=O)[C@@H]1CSSC[C@H](NC(=O)CNC(=O)[C@@H](NC(=O)[C@H](CCCNC(=N)N)NC(=O)[C@H](CC(C)C)NC(=O)[C@H](CC(C)C)NC(=O)[C@H](CCC(N)=O)NC(=O)[C@H](C)NC(=O)[C@H](CCC(N)=O)NC(=O)[C@@H](N)[C@@H](C)O)C(C)C)C(=O)N[C@@H](C(C)C)C(=O)N[C@@H](CC(C)C)C(=O)NCC(=O)N[C@@H]([C@@H](C)O)C(=O)N1)C(C)C)C(=O)NCC(=O)N1CCC[C@H]1C(=O)N[C@@H](C)C(=O)NCC(=O)N[C@@H](CCCNC(=N)N)C(=O)N[C@@H](CCC(N)=O)C(=O)N[C@@H](CC(=O)O)C(=O)N[C@@H](CO)C(=O)N[C@@H](C)C(=O)N1CCC[C@H]1C(=O)N[C@H](C(=O)N[C@@H](CC(=O)O)C(=O)N1CCC[C@H]1C(=O)N[C@@H](CO)C(=O)N[C@@H](CO)C(=O)N1CCC[C@H]1C(=O)N[C@@H](Cc1c[nH]cn1)C(=O)N[C@@H](CO)C(=O)N[C@@H](Cc1ccc(O)cc1)C(N)=O)C(C)C` [AM2, adrenomedullin 2], the Emax – broadly, the size of the effect at its maximum, as opposed to the concentration needed – on RAMP3-CLR (AM2 receptor) stood at 20.1 ± 4.3%.

Take `CC[C@H](C)[C@H](NC(=O)[C@H](CCC(N)=O)NC(=O)[C@H](Cc1c[nH]cn1)NC(=O)[C@H](C)NC(=O)[C@H](CC(C)C)NC(=O)[C@H](CCCCN)NC(=O)[C@H](CCC(N)=O)NC(=O)[C@@H](NC(=O)[C@@H](NC(=O)[C@@H]1CSSC[C@H](NC(=O)CNC(=O)[C@H](Cc2ccccc2)NC(=O)[C@H](CO)NC(=O)[C@H](CCCNC(=N)N)NC(=O)[C@H](CC(C)C)NC(=O)CNC(=O)[C@H](CCC(N)=O)NC(=O)[C@H](Cc2ccccc2)NC(=O)[C@H](CC(N)=O)NC(=O)[C@H](CC(N)=O)NC(=O)[C@H](CCSC)NC(=O)[C@H](CO)NC(=O)[C@H](CCC(N)=O)NC(=O)[C@H](CCCNC(=N)N)NC(=O)[C@@H](N)Cc2ccc(O)cc2)C(=O)N[C@@H](CCCNC(=N)N)C(=O)N[C@@H](Cc2ccccc2)C(=O)NCC(=O)N[C@@H]([C@@H](C)O)C(=O)N1)[C@@H](C)O)C(C)C)C(=O)N[C@@H](Cc1ccc(O)cc1)C(=O)N[C@@H](CCC(N)=O)C(=O)N[C@@H](Cc1ccccc1)C(=O)N[C@H](C(=O)N[C@@H](CC(=O)O)C(=O)N[C@@H](CCCCN)C(=O)N[C@@H](CC(=O)O)C(=O)N[C@@H](CCCCN)C(=O)N[C@@H](CC(=O)O)C(=O)N[C@@H](CC(N)=O)C(=O)N[C@H](C(=O)N[C@@H](C)C(=O)N1CCC[C@H]1C(=O)N[C@@H](CCCNC(=N)N)C(=O)N[C@@H](CO)C(=O)N[C@@H](CCCCN)C(=O)N[C@H](C(=O)N[C@@H](CO)C(=O)N1CCC[C@H]1C(=O)N[C@@H](CCC(N)=O)C(=O)NCC(=O)N[C@@H](Cc1ccc(O)cc1)C(N)=O)[C@@H](C)CC)C(C)C)[C@@H](C)O` [AM, adrenomedullin]: the Emax in test [1] (HEK293, PTX treated (200 ng/ml, 16 h), percentage of maximal cAMP with 100 μM forskolin in presence of PTX, n = 6 (Table 3)) worked out at 72.2 ± 1.7%; in test [1] (HEK293, percentage of maximal cAMP with 100 μM forskolin, HEK-293, 30 min, n = 11 (Table 2)), 45.2 ± 3.7%; in test [1] (HEK293, untreated, percentage of maximal cAMP with 100 μM forskolin in presence of PTX, n = 9 (Table 3)), 48.1 ± 2.5%; on RAMP3-CLR (AM2 receptor), 44.3 ± 3.2%.
